The record followed here is patent US20250197372A1 (priority 2020, published 2025).

Holding throughout (type): biochemical
Assay [1] addresses recombinant human GAA (acid alpha-glucosidase) (Homo sapiens, UniProt P10253). The assay can be described thus: Acid alpha-glucosidase (GAA) assay (4-methylumbelliferyl-alpha-D-pyranoside substrate, fluorescence). Summed up:
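IC50 from 4-PL curve fit of percent inhibition, based on fluorescence (365/440 nm) of released methylumbelliferone relative to uninhibited enzyme. Compound dilutions and human GAA incubated 60 min, 37 °C, before 20 min substrate reaction at 37 °C, quenched at pH 10.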

Assay [2] addresses rat sucrase (partially purified alpha-glucosidase from intestinal rat powder) (Rattus norvegicus, UniProt P23739). The experiment in a line: Intestinal alpha-glucosidase assay, sucrose substrate (Glucose GO Kit). The essentials:
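First step: 60 min, 37 °C, compound with partially purified rat intestinal alpha-glucosidase. Next, maltose or sucrose for 30 min at 37 °C, ended at 90 °C for 5 min. Glucose quantified enzymatically; concentration–inhibition data fitted 4-PL for IC50.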

For assay [3], the target named is T1, recombinant alpha-glucosidase II (murine full-length glucosidase II, alpha and beta subunits, Glu 2) (Mus musculus, UniProt Q8BHN3).
T1 construct: made in house; host or cells: HEK-293T cells transduced with BacMam viruses (75% alpha, 25% beta); protein harvested from culture supernatant
T1 sequence (O08795 15-521): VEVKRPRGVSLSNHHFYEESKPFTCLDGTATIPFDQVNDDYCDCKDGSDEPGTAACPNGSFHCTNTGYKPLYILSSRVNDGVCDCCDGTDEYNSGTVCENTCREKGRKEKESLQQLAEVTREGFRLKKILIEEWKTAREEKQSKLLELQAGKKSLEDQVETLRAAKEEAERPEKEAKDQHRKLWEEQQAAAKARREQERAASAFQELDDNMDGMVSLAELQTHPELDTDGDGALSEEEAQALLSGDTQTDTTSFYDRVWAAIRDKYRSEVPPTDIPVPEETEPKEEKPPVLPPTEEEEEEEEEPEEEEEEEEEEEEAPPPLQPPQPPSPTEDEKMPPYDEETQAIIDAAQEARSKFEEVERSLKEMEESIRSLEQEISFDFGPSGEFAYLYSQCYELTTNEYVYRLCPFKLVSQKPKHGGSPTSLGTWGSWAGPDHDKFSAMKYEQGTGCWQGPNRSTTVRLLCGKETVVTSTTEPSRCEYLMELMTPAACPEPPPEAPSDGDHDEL
T1 sequence (Q8BHN3 33-944): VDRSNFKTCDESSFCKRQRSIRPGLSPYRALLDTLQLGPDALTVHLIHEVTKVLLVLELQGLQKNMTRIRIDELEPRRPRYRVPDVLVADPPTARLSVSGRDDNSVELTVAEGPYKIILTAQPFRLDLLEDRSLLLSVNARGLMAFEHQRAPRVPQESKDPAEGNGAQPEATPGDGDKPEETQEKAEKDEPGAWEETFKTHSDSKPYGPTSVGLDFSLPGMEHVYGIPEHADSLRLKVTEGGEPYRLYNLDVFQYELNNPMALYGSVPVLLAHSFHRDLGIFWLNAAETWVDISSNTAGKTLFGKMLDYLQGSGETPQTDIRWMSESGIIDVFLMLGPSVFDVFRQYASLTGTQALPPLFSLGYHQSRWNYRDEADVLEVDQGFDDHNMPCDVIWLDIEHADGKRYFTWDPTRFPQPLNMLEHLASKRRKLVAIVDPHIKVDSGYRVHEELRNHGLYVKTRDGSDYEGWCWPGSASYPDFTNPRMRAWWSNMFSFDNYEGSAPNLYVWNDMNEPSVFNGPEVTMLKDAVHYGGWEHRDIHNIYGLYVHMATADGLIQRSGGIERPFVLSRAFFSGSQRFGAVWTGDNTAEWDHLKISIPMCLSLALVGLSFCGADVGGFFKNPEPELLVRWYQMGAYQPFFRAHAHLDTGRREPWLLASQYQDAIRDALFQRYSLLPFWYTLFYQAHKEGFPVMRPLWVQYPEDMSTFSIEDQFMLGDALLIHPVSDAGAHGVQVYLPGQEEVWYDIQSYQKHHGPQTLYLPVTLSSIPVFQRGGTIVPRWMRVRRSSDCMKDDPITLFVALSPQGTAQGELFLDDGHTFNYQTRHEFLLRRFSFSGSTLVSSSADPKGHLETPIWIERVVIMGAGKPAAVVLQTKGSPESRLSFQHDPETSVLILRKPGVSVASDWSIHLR
The experiment in a line: Alpha-glucosidase II assay (4-methylumbelliferyl-alpha-D-pyranoside substrate, fluorescence). To be noted: Glucosidase 2; read-out: Glu2 IC50.

In assay [4] the target is T2, recombinant human GBA (beta-glucocerebrosidase) (Homo sapiens, UniProt P04062).
T2 sequence (P04062 40-536): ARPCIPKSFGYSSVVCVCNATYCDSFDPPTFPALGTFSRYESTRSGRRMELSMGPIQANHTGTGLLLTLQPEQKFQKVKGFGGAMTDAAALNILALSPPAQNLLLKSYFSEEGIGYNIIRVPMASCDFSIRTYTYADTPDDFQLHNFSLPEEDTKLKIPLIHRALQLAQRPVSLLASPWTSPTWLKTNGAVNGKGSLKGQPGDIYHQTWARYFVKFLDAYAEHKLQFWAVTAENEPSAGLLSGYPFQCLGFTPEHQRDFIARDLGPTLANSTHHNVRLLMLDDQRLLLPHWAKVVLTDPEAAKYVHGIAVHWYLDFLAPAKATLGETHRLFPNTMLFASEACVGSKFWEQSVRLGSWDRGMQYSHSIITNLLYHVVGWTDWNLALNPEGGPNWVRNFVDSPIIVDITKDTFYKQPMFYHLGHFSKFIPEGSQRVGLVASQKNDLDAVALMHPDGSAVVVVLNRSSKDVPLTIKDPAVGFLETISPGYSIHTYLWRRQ
The experiment in a line: Beta-glucocerebrosidase (GBA, glucosylceramidase) assay (4-methylumbelliferyl-beta-D-pyranoside substrate, fluorescence). Summed up:
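IC50 by four-parameter fit of percent inhibition, with product fluorescence (365/440 nm) read after a glycine/NaOH pH 10 stop. Compound and commercial recombinant human enzyme were incubated 60 min at 37 °C before a further 60 min at 37 °C with 4-methylumbelliferyl-beta-D-pyranoside substrate.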

Chain of rat sucrase (partially purified alpha-glucosidase from intestinal rat powder) (P23739 whole entry): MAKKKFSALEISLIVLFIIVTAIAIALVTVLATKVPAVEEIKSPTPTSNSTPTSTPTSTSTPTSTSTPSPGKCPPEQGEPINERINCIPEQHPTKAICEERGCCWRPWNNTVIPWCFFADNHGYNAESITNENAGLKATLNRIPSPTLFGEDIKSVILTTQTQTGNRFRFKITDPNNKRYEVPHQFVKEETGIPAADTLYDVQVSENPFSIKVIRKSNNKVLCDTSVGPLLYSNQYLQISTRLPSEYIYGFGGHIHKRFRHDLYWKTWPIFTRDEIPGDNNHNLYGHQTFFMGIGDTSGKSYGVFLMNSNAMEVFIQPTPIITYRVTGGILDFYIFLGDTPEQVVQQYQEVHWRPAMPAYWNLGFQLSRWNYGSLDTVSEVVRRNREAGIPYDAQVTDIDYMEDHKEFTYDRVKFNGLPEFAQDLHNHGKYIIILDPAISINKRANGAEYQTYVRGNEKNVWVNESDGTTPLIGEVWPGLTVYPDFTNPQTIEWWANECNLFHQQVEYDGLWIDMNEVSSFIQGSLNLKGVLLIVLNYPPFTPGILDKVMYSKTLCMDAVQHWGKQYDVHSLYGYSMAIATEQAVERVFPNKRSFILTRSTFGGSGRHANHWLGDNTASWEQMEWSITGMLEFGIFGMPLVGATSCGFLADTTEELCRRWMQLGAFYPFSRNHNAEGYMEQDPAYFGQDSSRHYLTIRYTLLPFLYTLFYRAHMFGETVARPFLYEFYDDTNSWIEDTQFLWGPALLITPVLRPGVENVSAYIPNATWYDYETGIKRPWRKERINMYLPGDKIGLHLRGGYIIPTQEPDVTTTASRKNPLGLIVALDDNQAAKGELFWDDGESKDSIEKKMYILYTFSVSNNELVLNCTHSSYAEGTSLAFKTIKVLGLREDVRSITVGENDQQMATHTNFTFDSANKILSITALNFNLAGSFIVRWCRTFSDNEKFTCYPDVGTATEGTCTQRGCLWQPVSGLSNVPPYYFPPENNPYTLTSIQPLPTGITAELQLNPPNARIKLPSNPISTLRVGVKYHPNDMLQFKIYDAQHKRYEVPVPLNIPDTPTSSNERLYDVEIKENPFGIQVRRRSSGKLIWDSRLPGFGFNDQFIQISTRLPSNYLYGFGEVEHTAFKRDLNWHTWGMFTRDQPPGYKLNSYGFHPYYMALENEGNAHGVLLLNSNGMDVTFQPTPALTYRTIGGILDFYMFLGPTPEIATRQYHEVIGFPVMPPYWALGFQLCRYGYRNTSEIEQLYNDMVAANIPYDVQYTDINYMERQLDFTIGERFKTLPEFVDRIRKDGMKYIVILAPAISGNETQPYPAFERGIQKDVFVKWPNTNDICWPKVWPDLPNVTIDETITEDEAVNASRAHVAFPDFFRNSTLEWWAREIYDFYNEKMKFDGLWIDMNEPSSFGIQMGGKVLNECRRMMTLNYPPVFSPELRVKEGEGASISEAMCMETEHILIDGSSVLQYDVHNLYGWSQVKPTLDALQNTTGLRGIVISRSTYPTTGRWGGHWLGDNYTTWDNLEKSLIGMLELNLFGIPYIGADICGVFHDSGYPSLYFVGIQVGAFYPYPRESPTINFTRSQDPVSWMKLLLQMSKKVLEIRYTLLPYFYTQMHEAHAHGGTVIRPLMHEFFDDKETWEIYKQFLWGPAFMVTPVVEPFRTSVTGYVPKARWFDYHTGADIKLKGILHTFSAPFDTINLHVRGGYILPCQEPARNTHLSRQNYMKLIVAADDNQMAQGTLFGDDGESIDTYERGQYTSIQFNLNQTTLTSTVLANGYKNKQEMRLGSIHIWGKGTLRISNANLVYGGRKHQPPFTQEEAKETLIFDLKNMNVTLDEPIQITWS

By IC50 is commonly meant the concentration that gives 50% inhibition. For the compound `COc1cc(NCCCCCCN2C[C@H](O)[C@@H](O)[C@H](O)[C@H]2CO)cc(-c2ncco2)c1` [Compound 1216, (2R,3R,4R,5S)-2-(hydroxymethyl)-1-(6-{[3-methoxy-5-(1,3-oxazol-2-yl)phenyl]amino}hexyl)piperidine-3,4,5-triol], the half-inhibitory concentration (IC50) in assay [1] is 37 nM; in assay [2] it was 796 nM; in assay [3] it was 2 nM; in assay [4], 2.14 µM.
The like results for `[N-]=[N+]=Nc1ccc(NCCCCCCN2C[C@H](O)[C@@H](O)[C@H](O)[C@H]2CO)c(C(N)=O)c1` [Compound 1296, 5-azido-2-({6-[(2R,3R,4R,5S)-3,4,5-trihydroxy-2-(hydroxymethyl)piperidin-1-yl]hexyl}amino)benzamide] were, in that order, 124 nM, 494 nM, 29 nM and 3.26 µM.
The like results for `N#Cc1cc(Br)cc(NCc2cccc(CN3C[C@H](O)[C@@H](O)[C@H](O)[C@H]3CO)c2)c1` [Compound 1023, 3-bromo-5-{[(3-{[(2R,3R,4R,5S)-3,4,5-trihydroxy-2-(hydroxymethyl)piperidin-1-yl]methyl}phenyl)methyl]amino}benzonitrile] were, in that order, 1440 nM, 66 nM, 42600 nM and 91.1 µM.
As for `[N-]=[N+]=Nc1ccc(NCCOCCN2C[C@H](O)[C@@H](O)[C@H](O)[C@H]2CO)c([N+](=O)[O-])c1` [Compound 1255, (2R,3R,4R,5S)-1-(2-{2-[(4-azido-2-nitrophenyl)amino]ethoxy}ethyl)-2-(hydroxymethyl)piperidine-3,4,5-triol], the half-inhibitory concentration (IC50) in assay [1] stood at 228 nM; in assay [2], 56 nM; in assay [3] it was 29 nM; in assay [4], 3.08 µM.
The like results for `Cc1cc(NCc2ccc(CN3C[C@H](O)[C@@H](O)[C@H](O)[C@H]3CO)cc2)cc(-c2ccco2)c1` [Compound 1317, (2R,3R,4R,5S)-1-{[4-({[3-(furan-2-yl)-5-methylphenyl]amino}methyl)phenyl]methyl}-2-(hydroxymethyl)piperidine-3,4,5-triol] were, in that order, 480 nM, less than 1 nM, 1200 nM and 45.1 µM.
The like results for `Cc1cc(NCc2cccc(CN3C[C@H](O)[C@@H](O)[C@H](O)[C@H]3CO)c2)cc(C2=COCCO2)c1` [Compound 1032, (2R,3R,4R,5S)-1-{[3-({[3-(5,6-dihydro-1,4-dioxin-2-yl)-5-methylphenyl]amino}methyl)phenyl]methyl}-2-(hydroxymethyl)piperidine-3,4,5-triol] were, in that order, 4170 nM, 36 nM, 47700 nM and greater than 100 µM.
`[N-]=[N+]=Nc1ccc(NCCc2ccccc2CCN2C[C@H](O)[C@@H](O)[C@H](O)[C@H]2CO)c([N+](=O)[O-])c1` [Compound 1249]: the concentration for half-maximal inhibition (IC50) was determined as 1920 nM in assay [1], 1870 nM in assay [2], 162 nM in assay [3] and 0.32 µM in assay [4].
The like results for `O=S(=O)(Nc1cc(-c2ncccn2)ccc1NCCCCCCN1C[C@H](O)[C@@H](O)[C@H](O)[C@H]1CO)C1CC1` [Compound 1227, N-[5-(pyrimidin-2-yl)-2-({6-[(2R,3R,4R,5S)-3,4,5-trihydroxy-2-(hydroxy-methyl)piperidin-1-yl]hexyl}amino)phenyl]cyclopropanesulfonamide] were, in that order, 82 nM, 104 nM, 17 nM and 0.592 µM.
The like results for `Cc1cc(NCc2cnc(CN3C[C@H](O)[C@@H](O)[C@H](O)[C@H]3CO)cn2)cc(-c2ccc[nH]2)c1` [Compound 1330, (2R,3R,4R,5S)-2-(hydroxymethyl)-1-{[5-({[3-methyl-5-(1H-pyrrol-2-yl)phenyl]amino}methyl)pyrazin-2-yl]methyl}piperidine-3,4,5-triol] were, in that order, 90 nM, 595 nM, 14400 nM and 13.2 µM.
The like results for `OC[C@@H]1[C@@H](O)[C@H](O)[C@@H](O)CN1Cc1cccc(CNc2ccc(Br)cc2)c1` [Compound 1027, (2R,3R,4R,5S)-1-[(3-{[(4-bromophenyl)amino]methyl}phenyl)methyl]-2-(hydroxymethyl)piperidine-3,4,5-triol] were, in that order, 2830 nM, 23 nM, 23600 nM and 75.7 µM.
For the compound `COc1cc(NCCCCCCN2C[C@H](O)[C@@H](O)[C@H](O)[C@H]2CO)cc(-c2ncccn2)c1` [Compound 1217, (2R,3R,4R,5S)-2-(hydroxymethyl)-1-(6-{[3-methoxy-5-(pyrimidin-2-yl)phenyl]amino}hexyl)piperidine-3,4,5-triol], the IC50 in assay [1] is 10 nM; in assay [2] it was 225 nM; in assay [3], 11 nM; in assay [4], 0.981 µM.
With `CN(C)Cc1ccc(NCCCCCCN2C[C@H](O)[C@@H](O)[C@H](O)[C@H]2CO)c(F)c1` [Compound 1236, (2R,3R,4R,5S)-1-[6-({4-[(dimethylamino)methyl]-2-fluorophenyl}amino)hexyl]-2-(hydroxymethyl)piperidine-3,4,5-triol], the IC50 in assay [1] is 556 nM; in assay [2], 254 nM; in assay [3] it was 39 nM; in assay [4], 4.63 µM.
The like results for `OC[C@@H]1[C@@H](O)[C@H](O)[C@@H](O)CN1CCCCCCCCC1CNCCO1` (stereo partly drawn) [Compound 1311, (2R,3R,4R,5S)-2-(hydroxymethyl)-1-[8-(morpholin-2-yl)octyl]piperidine-3,4,5-triol] were, in that order, 747 nM, 1010 nM, 197 nM and 26.2 µM.
Take `COCCc1ccc(CCCN2C[C@H](O)[C@@H](O)[C@H](O)[C@H]2CO)cc1` [Compound 1308, (2R,3R,4R,5S)-2-(hydroxymethyl)-1-{3-[4-(2-methoxyethyl)phenyl]propyl}piperidine-3,4,5-triol]: the IC50 worked out at 1680 nM in assay [1], 331 nM in assay [2], 125 nM in assay [3] and 50.9 µM in assay [4].
The like results for `COc1cc(NCCCCCCN2C[C@H](O)[C@@H](O)[C@H](O)[C@H]2CO)cc(-c2ncc[nH]2)c1` [Compound 1219, (2R,3R,4R,5S)-2-(hydroxymethyl)-1-(6-{[3-(1H-imidazol-2-yl)-5-methoxyphenyl]amino}hexyl)piperidine-3,4,5-triol] were, in that order, 89 nM, 64 nM, 18 nM and 8.67 µM.
The like results for `[N-]=[N+]=Nc1ccc(NCCN(CCC(N)=O)CCN2C[C@H](O)[C@@H](O)[C@H](O)[C@H]2CO)c([N+](=O)[O-])c1` [Compound 1235] were, in that order, 37800 nM, 8650 nM, 530 nM and 11.4 µM.
The like results for `[N-]=[N+]=Nc1ccc(NCCNS(=O)(=O)NCCN2C[C@H](O)[C@@H](O)[C@H](O)[C@H]2CO)c([N+](=O)[O-])c1` [Compound 1275, (2R,3R,4R,5S)-1-{2-[({2-[(4-azido-2-nitrophenyl)amino]ethyl}sulfamoyl)amino]ethyl}-2-(hydroxymethyl)piperidine-3,4,5-triol] were, in that order, 556 nM, 413 nM, 366 nM and 2.17 µM.
For the compound `Nc1ccc(NCCCCCCCCN2C[C@H](O)[C@@H](O)[C@H](O)[C@H]2CO)c([N+](=O)[O-])c1Cl` [Compound 1277, (2R,3R,4R,5S)-1-{8-[(4-amino-3-chloro-2-nitrophenyl)amino]octyl} 2-(hydroxymethyl)piperidine-3,4,5-triol], the 50% inhibitory concentration (IC50) is less than 10 nM in assay [1], 133 nM in assay [2], less than 1 nM in assay [3] and less than 0.01 µM in assay [4].
Regarding `Cc1cc(NCc2ccc(CN3C[C@H](O)[C@@H](O)[C@H](O)[C@H]3CO)cc2)cc(-n2nccn2)c1` [Compound 1316, (2R,3R,4R,5S)-2-(hydroxymethyl)-1-{[4-({[3-methyl-5-(2H-1,2,3-triazol-2-yl)phenyl]amino}methyl)phenyl]methyl}piperidine-3,4,5-triol], the IC50 in assay [1] was 94 nM; in assay [2], 14 nM; in assay [3], 194 nM; in assay [4], greater than 100 µM.
